Source: the C3SDB collision cross section collection
Values belong to the compound of their own block, whether it stands above or below them.

Details: instrument: DT, stepped-field

Compound: CC/C=C\C/C=C\C/C=C\C/C=C\C/C=C\CCCC(=O)O[C@H](COC(=O)CCCCCCC/C=C\CCCCCCCC)COP(=O)([O-])OCC[N+](C)(C)C [PC(38:06)]
collision cross section (N2) ([M+Cl]-): 296.13 Å²
collision cross section (N2) ([M+HCOO]-): 295.99 Å²

Compound: CCCCCCCCCCCCC=CC[C@@H](O)[C@H](CO[C@@H]1O[C@H](CO)[C@@H](O)C(O)C1O)NC(=O)CC=CCC=CCCCCCCCCCCCCCCCCCCC (some centres not stated) [GlcCer(44:03)]
collision cross section (N2) ([M+Na]+): 303.93 Å²

Compound: CCCCCCCCCCCCC=CC[C@@H](O)[C@H](CO[C@@H]1O[C@H](CO)[C@@H](O)C(O)C1O)NC(=O)CCCCCCCCCCCCCCCCCCCCC (some centres not stated) [GlcCer(40:01)]
collision cross section (N2) ([M+Cl]-): 292.56 Å²
collision cross section (N2) ([M+H-H2O]+): 292.77 Å²
collision cross section (N2) ([M+HCOO]-): 298.16 Å²
collision cross section (N2) ([M+H]+): 293.87 Å²
collision cross section (N2) ([M+Na]+): 296.15 Å²

Compound: CCCCCCCCCCCCC=CC[C@@H](O)[C@H](CO[C@@H]1O[C@H](CO)[C@@H](O)C(O)C1O)NC(=O)CCCCCCCCCCCCCCCCCC (some centres not stated) [GlcCer(37:01)]
collision cross section (N2) ([M+Na]+): 287.43 Å²

Compound: CC/C=C\C/C=C\C/C=C\C/C=C\C/C=C\C/C=C\CCC(=O)O[C@H](COC(=O)CCCCCCCCC/C=C\CCCCCCCC)COP(=O)(O)OCCN [PE(42:07)]
collision cross section (N2) ([M+K]+): 291.12 Å²

Compound: CCCCCCCCCCCCC=CC[C@@H](O)[C@H](COP(=O)([O-])OCC[N+](C)(C)C)NC(=O)CCCCCCCCCCCCCCCCCCCC [SM(39:01)]
collision cross section (N2) ([M+H]+): 295.85 Å²
collision cross section (N2) ([M+Na]+): 294.58 Å²

Compound: CCCCCCCCCCCCC=CC[C@@H](O)[C@H](COP(=O)([O-])OCC[N+](C)(C)C)NC(=O)CC=CCCCCCCCCCCCCCCCCCCCC [SM(42:02)]
collision cross section (N2) ([M+Cl]-): 304.71 Å²
collision cross section (N2) ([M+HCOO]-): 305.63 Å²
collision cross section (N2) ([M+H]+): 301.43 Å²
collision cross section (N2) ([M+Na-H2O]+): 301.19 Å²
collision cross section (N2) ([M+Na]+): 300.53 Å²

Compound: CC/C=C\C/C=C\C/C=C\C/C=C\CCCCC(=O)OC[C@H](COP(=O)(O)OCCN)OC(=O)CCCCCCCCC/C=C\C/C=C\CCCCC [PE(38:06)]
collision cross section (N2) ([M+2Na-H]+): 281 Å²
collision cross section (N2) ([M-H]-): 273.81 Å²

Compound: CCCCCCCCCCCCC=CC[C@@H](O)[C@H](CO[C@@H]1O[C@H](CO)[C@@H](O)C(O)C1O)NC(=O)CC=CCCCCCCCCCCCCCCCCCC (some centres not stated) [GlcCer(40:02)]
collision cross section (N2) ([M+H-H2O]+): 290.36 Å²
collision cross section (N2) ([M+H]+): 293.98 Å²
collision cross section (N2) ([M+Na]+): 292.09 Å²

Compound: CCCCCCCCCCCCCCCCCCCCCCCCCCCCCCC(=O)N[C@@H](CO[C@@H]1O[C@H](CO)[C@@H](O)C(O)C1O)[C@H](O)CCCCCCCCCCCCCCC (some centres not stated) [GlcCer(49:00)]
collision cross section (N2) ([M+Na-2H2O]+): 318.7 Å²

Compound: CC/C=C\C/C=C\C/C=C\C/C=C\C/C=C\CCCC(=O)OC[C@H](COP(=O)(O)OC[C@H](N)C(=O)O)OC(=O)CCCCC/C=C\C/C=C\C/C=C\C/C=C\CCCCC [PS(42:09)]
collision cross section (N2) ([M+2Na-H]+): 292.63 Å²
collision cross section (N2) ([M+K]+): 294.57 Å²
collision cross section (N2) ([M-H]-): 290.63 Å²

Compound: CCCCCCCCCCCCCCCCCCCC(=O)N[C@@H](COP(=O)([O-])OCC[N+](C)(C)C)[C@H](O)CCCCCCCCCCCCCCC [SM(38:00)]
collision cross section (N2) ([M+2Na-H]+): 294.68 Å²

Compound: CCCCC/C=C\C/C=C\C/C=C\C/C=C\CCCCCC(=O)O[C@H](COC(=O)CCC/C=C\C/C=C\C/C=C\C/C=C\CCCCC)COP(=O)(O)OC[C@H](N)C(=O)O [PS(42:08)]
collision cross section (N2) ([M+2Na-H]+): 295.25 Å²
collision cross section (N2) ([M-H]-): 291.98 Å²

Compound: CCCCCCCCCCCCC=CC[C@@H](O)[C@H](COP(=O)([O-])OCC[N+](C)(C)C)NC(=O)CC=CCC=CCCCCCCCCCCCCCCCCCCC [SM(44:03)]
collision cross section (N2) ([M+Na]+): 304.66 Å²

Compound: CCCCCCCCCCCCCCCCCCCC(=O)N[C@@H](CO[C@@H]1O[C@H](CO)[C@@H](O)C(O)C1O)[C@H](O)CCCCCCCCCCCCCCC (some centres not stated) [GlcCer(38:00)]
collision cross section (N2) ([M+H]+): 290.18 Å²
collision cross section (N2) ([M+Na]+): 291.27 Å²

Compound: CCCCCCCCCCCCC=CC[C@@H](O)[C@H](CO)NC(=O)CC=CCC=CCCCCCCCCCCCCCCCCC [Cer(42:03)]
collision cross section (N2) ([M+H-H2O]+): 271.44 Å²
collision cross section (N2) ([M+H]+): 275.18 Å²

Compound: CCCCCCCCCCCCC=CC[C@@H](O)[C@H](CO[C@@H]1O[C@H](CO)[C@@H](O)C(O)C1O)NC(=O)CCCCCCCCCCCCCCCCCCC (some centres not stated) [GlcCer(38:01)]
collision cross section (N2) ([M+H-H2O]+): 286.62 Å²
collision cross section (N2) ([M+H]+): 288.15 Å²
collision cross section (N2) ([M+Na]+): 290.52 Å²

The remaining lines, values ahead:

collision cross section (N2) ([M+2Na-H]+): 284.68 Å²
Compound: CCCCC/C=C\C/C=C\C/C=C\C/C=C\CCCC(=O)O[C@H](COCCCCCCCCCCCCCCCCCC)COP(=O)(O)OCCN [PE(o38:04)]

collision cross section (N2) ([M+Cl]-): 299.51 Å²
collision cross section (N2) ([M+Na]+): 293.06 Å²
Compound: CCCCC/C=C\C/C=C\CCCC/C=C\CCCC(=O)O[C@H](COC(=O)CCCCCCCCCCCCCCCCC)COP(=O)([O-])OCC[N+](C)(C)C [PC(38:03)]

collision cross section (N2) ([M+2Na-H]+): 273.28 Å²
collision cross section (N2) ([M+H]+): 268.45 Å²
collision cross section (N2) ([M+K]+): 274.83 Å²
collision cross section (N2) ([M+Na]+): 273.06 Å²
collision cross section (N2) ([M-H]-): 265.55 Å²
Compound: CCCCC/C=C\C/C=C\CCCCCCCCCCCC(=O)O[C@H](COC(=O)CCCCCCCCCCC)COP(=O)(O)OCCN [PE(34:02)]

collision cross section (N2) ([M+2Na-H]+): 281.26 Å²
collision cross section (N2) ([M+H]+): 275.13 Å²
collision cross section (N2) ([M+K]+): 280.72 Å²
collision cross section (N2) ([M+Na]+): 279.88 Å²
collision cross section (N2) ([M-H]-): 272.07 Å²
Compound: CCCCCC/C=C\CCCCCCCC(=O)OC[C@H](COP(=O)(O)OCCN)OC(=O)CCCCCCCCC/C=C\CCCCCCCC [PE(36:02)]

collision cross section (N2) ([M-H]-): 274.96 Å²
Compound: CCCCCCCCCCCCCCCCCCCCC(=O)OC[C@H](COP(=O)(O)OCCN)OC(=O)CCCCCCCCCCCCCC [PE(36:00)]

collision cross section (N2) ([M+2Na-H]+): 285.85 Å²
Compound: CCCCC/C=C\C/C=C\C/C=C\CCCCCCC(=O)O[C@H](COC(=O)CCCCCCC/C=C\CCCCCCC)COP(=O)(O)OC[C@H](N)C(=O)O [PS(37:04)]

collision cross section (N2) ([M+2Na-H]+): 283.9 Å²
collision cross section (N2) ([M+Cl]-): 290.47 Å²
collision cross section (N2) ([M+HCOO]-): 290.79 Å²
collision cross section (N2) ([M+H]+): 281.97 Å²
collision cross section (N2) ([M+K]+): 285.76 Å²
collision cross section (N2) ([M+Na]+): 284.83 Å²
Compound: CCCCCC/C=C/CCCCCCCCCC(=O)O[C@H](COC(=O)CCCCCCCCCCCCCCC)COP(=O)([O-])OCC[N+](C)(C)C [PC(34:01)]

collision cross section (N2) ([M+2Na-H]+): 280.81 Å²
Compound: CCCCCCCCCC/C=C\CCCCCCCCCC(=O)O[C@H](COC(=O)CCCCCCCCCCC)COP(=O)(O)OC[C@H](N)C(=O)O [PS(34:01)]

collision cross section (N2) ([M+2Na-H]+): 276.1 Å²
collision cross section (N2) ([M+Na]+): 276.54 Å²
Compound: CCCCC/C=C\C/C=C\CCCCCCCCCC(=O)O[C@H](COC(=O)CCCCCCC/C=C\C/C=C\CCCCC)COP(=O)(O)O [PA(38:04)]

collision cross section (N2) ([M+2Na-H]+): 271.84 Å²
Compound: CCCCCCCCCC/C=C\CCCCCCCCCC(=O)O[C@H](COC(=O)CCCCCCCCCCCC)COP(=O)(O)O [PA(35:01)]

collision cross section (N2) ([M+K]+): 277.37 Å²
collision cross section (N2) ([M+Na]+): 275.61 Å²
Compound: CCCCCCC/C=C\CCCCCCCC(=O)O[C@H](COC(=O)CCCCCCC/C=C\CCCCCCCC)COP(=O)(O)OCCN [PE(35:02)]

collision cross section (N2) ([M-H]-): 284.03 Å²
Compound: CCCCCCCCCCCCCCCCCC(=O)OC[C@H](COP(=O)(O)OC[C@H](N)C(=O)O)OC(=O)CCCCCCCCCCCCCCCCC [PS(36:00)]

collision cross section (N2) ([M+H-H2O]+): 269.41 Å²
Compound: CCCCCCCCCCCCC=CC[C@@H](O)[C@H](CO)NC(=O)CCCCCCCCCCCCCCCCCCCCC [Cer(40:01)]

collision cross section (N2) ([M+2Na-H]+): 289.33 Å²
Compound: CCCCC/C=C\C/C=C\CCCCCCCC(=O)O[C@H](COCCCCCCCCCCCCCCCCCCCC)COP(=O)(O)OCCN [PE(o38:02)]

collision cross section (N2) ([M+2Na-H]+): 273.1 Å²
collision cross section (N2) ([M+Na]+): 272.25 Å²
Compound: CCCC/C=C\CCCCCCCC(=O)OC[C@H](COP(=O)(O)O)OC(=O)CCCCCCCCC/C=C\CCCCCCCCCC [PA(36:02)]

collision cross section (N2) ([M+H-H2O]+): 263.93 Å²
Compound: CCCCCCCCCCCCC=CC[C@@H](O)[C@H](CO)NC(=O)CCCCCCCCCCCCCCCCCCC [Cer(38:01)]

collision cross section (N2) ([M+2Na-H]+): 274.66 Å²
collision cross section (N2) ([M+Na]+): 273.4 Å²
Compound: CCCCCCCC/C=C\CCCCCCCC(=O)O[C@H](COC(=O)CCCCCCCCCCCCCCCCC)COP(=O)(O)O [PA(36:01)]

collision cross section (N2) ([M+2Na-H]+): 291.84 Å²
Compound: CCCCC/C=C\C/C=C\CCCCCCCC(=O)OC[C@H](COP(=O)(O)OCCN)OC(=O)CCCCCCCCCCCCCCCCCCCC [PE(39:02)]

collision cross section (N2) ([M+Na]+): 285.81 Å²
Compound: CCCCC/C=C\C/C=C\CCCCCCCCCCCC(=O)O[C@H](COC(=O)CCCCCCCCCCCC)COP(=O)([O-])OCC[N+](C)(C)C [PC(35:02)]

collision cross section (N2) ([M+2Na-H]+): 285.68 Å²
collision cross section (N2) ([M+H]+): 281.67 Å²
collision cross section (N2) ([M+K]+): 286.6 Å²
collision cross section (N2) ([M-H]-): 283.69 Å²
Compound: CCCCC/C=C\C/C=C\C/C=C\CCCCCCC(=O)O[C@H](COC(=O)CCCCCCC/C=C\C/C=C\CCCCC)COP(=O)(O)OC[C@H](N)C(=O)O [PS(38:05)]

collision cross section (N2) ([M+2Na-H]+): 297.48 Å²
Compound: CCCCC/C=C\C/C=C\C/C=C\C/C=C\CCCCCC(=O)O[C@H](COC(=O)CCCCCCCCC/C=C\C/C=C\CCCCC)COP(=O)(O)OC[C@H](N)C(=O)O [PS(42:06)]

collision cross section (N2) ([M+2Na-H]+): 268.9 Å²
collision cross section (N2) ([M+Na]+): 268.62 Å²
Compound: CCCCCCCC/C=C\CCCCCCCCCC(=O)O[C@H](COC(=O)CCCCCCCCCCC)COP(=O)(O)OCCN [PE(32:01)]

collision cross section (N2) ([M+Na]+): 294.42 Å²
Compound: CC/C=C/C=C\C=C/C=C\C=C/C=C\CCCCCCCC(=O)O[C@H](COC(=O)CCCCCCCCCCCCCCCCC)COP(=O)([O-])OCC[N+](C)(C)C [PC(40:06)]
